Measured values as given in ChEMBL document CHEMBL4680279, “Opportunities for Tapping into Three-Dimensional Chemical Space through a Quaternary Carbon” (J Med Chem, 2020).
pEC50, pKi: −log10 of the molar value. ≈ marks a conversion by molar mass, not a printed value.

Columns and labels:
Aspergillus fumigatus = experiment: Antifungal activity against Aspergillus fumigatus incubated for 72 hrs; assay type: functional
Candida albicans = experiment: Antifungal activity against Candida albicans 124 incubated for 48 hrs; assay type: functional
[1] = molecular target: Cholecystokinin(CCK) A/B (Homo sapiens) (UniProt P32239+P32238); experiment: Selectivity index, ratio of IC50 for human Cholecystokinin B receptor expressed in CHO-K1 cells to IC50 for human Cholecystokinin A receptor expressed in CHO-K1 cells; assay type: cell-based
Cholecystokinin(CCK) A/B (Homo sapiens), sequence (P32238 whole entry, looked up): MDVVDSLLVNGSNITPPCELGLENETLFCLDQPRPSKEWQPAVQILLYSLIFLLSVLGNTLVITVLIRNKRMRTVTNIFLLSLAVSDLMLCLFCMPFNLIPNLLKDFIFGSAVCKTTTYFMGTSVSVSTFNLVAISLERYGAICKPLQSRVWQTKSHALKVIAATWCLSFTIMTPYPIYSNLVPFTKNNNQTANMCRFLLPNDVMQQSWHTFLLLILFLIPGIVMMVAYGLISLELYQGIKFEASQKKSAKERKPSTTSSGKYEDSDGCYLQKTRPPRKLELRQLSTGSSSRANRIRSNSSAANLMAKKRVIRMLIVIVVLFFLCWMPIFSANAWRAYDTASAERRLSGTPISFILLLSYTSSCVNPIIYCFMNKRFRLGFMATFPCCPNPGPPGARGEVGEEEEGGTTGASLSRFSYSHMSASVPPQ
Cholecystokinin(CCK) A/B (Homo sapiens), sequence (P32239 whole entry, looked up): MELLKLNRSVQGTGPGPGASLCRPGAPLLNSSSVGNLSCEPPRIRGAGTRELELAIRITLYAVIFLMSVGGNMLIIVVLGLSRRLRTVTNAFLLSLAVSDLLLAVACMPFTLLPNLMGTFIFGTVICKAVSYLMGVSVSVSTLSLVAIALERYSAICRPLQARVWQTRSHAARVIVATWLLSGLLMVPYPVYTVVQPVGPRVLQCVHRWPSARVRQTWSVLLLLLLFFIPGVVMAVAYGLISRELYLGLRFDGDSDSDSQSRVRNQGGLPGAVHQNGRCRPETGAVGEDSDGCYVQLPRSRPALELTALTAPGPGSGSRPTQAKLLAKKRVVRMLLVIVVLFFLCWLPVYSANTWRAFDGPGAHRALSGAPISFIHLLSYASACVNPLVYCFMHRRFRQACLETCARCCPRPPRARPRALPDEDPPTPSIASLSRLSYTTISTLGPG

[2] = molecular target: Growth hormone secretagogue receptor type 1 (Rattus norvegicus, UniProt O08725); experiment: Agonist activity at GHSR in Wistar rat pituitary gland cells assessed as induction of GH release by RIA; assay type: tissue-based, Pituitary gland cell
Growth hormone secretagogue receptor type 1, sequence (O08725 whole entry): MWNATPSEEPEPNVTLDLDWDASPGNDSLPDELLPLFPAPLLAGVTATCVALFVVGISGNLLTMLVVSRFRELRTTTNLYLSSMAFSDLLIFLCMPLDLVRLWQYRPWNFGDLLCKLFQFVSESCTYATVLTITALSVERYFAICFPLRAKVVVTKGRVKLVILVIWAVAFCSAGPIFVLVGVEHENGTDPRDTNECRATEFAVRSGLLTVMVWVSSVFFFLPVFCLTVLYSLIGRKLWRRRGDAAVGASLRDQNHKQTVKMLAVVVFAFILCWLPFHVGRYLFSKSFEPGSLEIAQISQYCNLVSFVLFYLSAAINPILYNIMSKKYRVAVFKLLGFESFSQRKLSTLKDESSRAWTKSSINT

[3] = Displacement of N-[3H]ethyladenosin-5'-uronamide from adenosine receptor A2 in rat striatal membranes by liquid scintillation counting method; assay type: cell membranes, Striatum, Membrane
[4] = Selectivity ratio of Ki for Displacement of N-[3H]ethyladenosin-5'-uronamide from adenosine receptor A2 in rat striatal membranes to Ki for Displacement of N6-[3H]cyclohexyladenosine from adenosine receptor A1 in guinea pig forebrain membranes; assay type: cell membranes

CN(Cc1ccc(C(C)(C)c2ccccc2)cc1)Cc1cccc2ccccc12
MIC (Aspergillus fumigatus): 0.1 µg/mL (≈ 0.263 µM) | MIC (Candida albicans): 1.56 µg/mL (≈ 4.11 µM)

CC(C)N(C(=O)CN1C(=O)C(CC(=O)Nc2ccccc2)C(=O)N(c2ccccc2)c2ccccc21)c1ccccc1 (centres undefined)
Ratio IC50 [1]: 5

CN1N=C2CCN(C(=O)[C@@H](COCc3ccccc3)NC(=O)C(C)(C)N)C[C@@]2(Cc2ccccc2)C1=O [CAPROMORELIN]
pEC50 [2]: 8.52

CN(Cc1ccc(C2(c3ccccc3)CC2)cc1)Cc1cccc2ccccc12
MIC (Aspergillus fumigatus): 1.56 µg/mL (≈ 4.13 µM) | MIC (Candida albicans): 3.13 µg/mL (≈ 8.29 µM)

CCCn1c(=O)c2nc(C3C(C)(C)CCC3(C)C)[nH]c2n(CCC)c1=O
pKi [3]: < 4.00 | Ratio Ki [4]: > 4500

CN(Cc1ccc(Cc2ccccc2)cc1)Cc1cccc2ccccc12
MIC (Aspergillus fumigatus): > 100 µg/mL | MIC (Candida albicans): > 100 µg/mL

CC(C)N(C(=O)CN1C(=O)C(C)(NC(=O)Nc2ccccc2)C(=O)N(c2ccccc2)c2ccccc21)c1ccccc1 (centres undefined)
Ratio IC50 [1]: 0.2

O=C(NC(Cc1c[nH]c2ccccc12)C(=O)N1CCC2(CCc3ccccc32)CC1)NC1CN2CCC1CC2 (centres undefined) [SPIROPIPERIDINE]
pEC50 [2]: 7.30

CC(C)N(C(=O)CN1C(=O)C(C)(CC(=O)Nc2ccccc2)C(=O)N(c2ccccc2)c2ccccc21)c1ccccc1 (centres undefined)
Ratio IC50 [1]: 110

CCCn1c(=O)c2[nH]c(C3CCCC3)nc2n(CCC)c1=O [1,3-DIPROPYL-8-CYCLOPENTYLXANTHINE [DPCPX]]
pKi [3]: 6.23
